Tests used:
[1] = set-up: species or system human; conditions: in vivo
HMG-CoA reductase = biological target: T1, HMG-CoA reductase (Homo sapiens, UniProt P04035); conditions: in vivo, po
T1 sequence (P04035 1-888): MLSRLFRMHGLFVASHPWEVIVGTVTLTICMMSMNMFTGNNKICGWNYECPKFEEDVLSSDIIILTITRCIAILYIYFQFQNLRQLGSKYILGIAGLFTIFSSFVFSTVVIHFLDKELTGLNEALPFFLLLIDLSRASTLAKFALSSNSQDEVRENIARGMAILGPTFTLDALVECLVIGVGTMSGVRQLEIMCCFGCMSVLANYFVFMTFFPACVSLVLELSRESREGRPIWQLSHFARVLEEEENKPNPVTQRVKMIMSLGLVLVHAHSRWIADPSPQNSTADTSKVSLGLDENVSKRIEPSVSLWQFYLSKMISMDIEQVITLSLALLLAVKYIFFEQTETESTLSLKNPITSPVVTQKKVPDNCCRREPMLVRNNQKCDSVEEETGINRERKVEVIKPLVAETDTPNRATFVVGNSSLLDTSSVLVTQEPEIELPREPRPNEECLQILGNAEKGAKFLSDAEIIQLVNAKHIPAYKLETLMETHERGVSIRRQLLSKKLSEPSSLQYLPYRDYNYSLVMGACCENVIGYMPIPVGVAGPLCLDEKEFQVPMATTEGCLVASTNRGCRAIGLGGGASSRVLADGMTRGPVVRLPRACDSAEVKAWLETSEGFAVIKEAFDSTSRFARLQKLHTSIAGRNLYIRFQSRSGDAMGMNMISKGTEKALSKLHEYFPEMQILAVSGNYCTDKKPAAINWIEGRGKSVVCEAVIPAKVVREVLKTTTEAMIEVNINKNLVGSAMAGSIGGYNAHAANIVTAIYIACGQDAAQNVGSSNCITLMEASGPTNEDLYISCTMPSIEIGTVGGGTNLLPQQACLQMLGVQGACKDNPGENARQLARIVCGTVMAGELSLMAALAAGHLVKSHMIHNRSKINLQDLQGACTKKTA

## CCC(C)(C)C(=O)O[C@H]1C[C@@H](C)C=C2C=C[C@H](C)[C@H](CC[C@@H](O)C[C@@H](O)CC(=O)O)[C@H]21 [SVA, dihydroxy open acid simvastatin]
[1]
  apparent t1/2, effect of itraconazole: essentially unchanged
[1]; male, human, po
  t½, SV in plasma: 6.7 (1.7) hr
HMG-CoA reductase
  Cmax, Active Inhibitors: 5.7 ± 3.0 ng eq/mL

Source: patent publication US20030176501A1 (priority 2000, published 2003)
